Laboratory results reported in PMC9598926, “Design and Synthesis of (Z)-5-(Substituted benzylidene)-3-cyclohexyl-2-thioxothiazolidin-4-one Analogues as Anti-Tyrosinase and Antioxidant Compounds: In Vitro and In Silico Insights” (Antioxidants, 2022).

Legend:
[1] = ABTS cation radical scavenging activity assay; settings: test sample 100 µM, 2 min in the dark
Description: 2.12. ABTS Cation Radical Scavenging Activity Assay
The free radical scavenging activities of analogs 1–8 and Trolox were determined using an ABTS radical cation decolorization assay (SEJIN CI Co., Seoul, Korea), as previously described with minor modification. Trolox was used as the positive control. ABTS radicals were produced by adding 10 mL of 7 mM ABTS in distilled water to 10 mL of 2.45 mM aqueous potassium persulfate solution. The mixture was kept in the dark for 12–16 h at RT until the reaction was complete and absorbance had stabilized. The prepared free radical solution was then diluted with methyl alcohol so that the optical density at 734 nm was 0.70 ± 0.02. Test samples (10 µL, final concentration at 100 µM) dissolved in EtOH/DMSO (9:1 v/v) were added to the diluted free radical solution (90 µL) in a 96-well plate. After standing at RT for 2 min in the dark, well absorbances were measured at 734 nm, and ABTS radical scavenging activities were calculated using the following formula:ABTS free radical scavenging activity (%) = (Ac − As) × 100/Ac(2) where Ac indicates the absorbance of the non-treated control, and As indicates the absorbances of test samples. Experiments were conducted independently 3 times.
The ABTS (2,2′-azino-bis(3-ethylbenzothiazoline-6-sulfonic acid)) cation radical scavenging assay is also commonly used to evaluate antioxidant effects. ABTS is converted to the ABTS radical cation by the transfer of one electron to potassium persulfate. Trolox was used as the positive control, and assays were performed at a test sample (analogs 1–8 and Trolox) concentration of 100 µM. The ABTS radical solution obtained by a reaction of ABTS with potassium persulfate was mixed with test samples and left in the dark for 2 min. ABTS radical scavenging abilities were evaluated by measuring absorbances at 734 nm. […] On the other hand, analog 1 with a 4-hydroxyphenyl group, and analogs 7 and 8 with bromo substituents on the β-phenyl ring weakly scavenged the ABTS radical (16.6–24.8% scavenging). […] Furthermore, the results for ABTS and DPPH radical scavenging activities were similar.

[2] = molecular target: mushroom tyrosinase; assay: Mushroom tyrosinase activity assay (L-tyrosine as substrate); format: biochemical; settings: mushroom tyrosinase, means ± SEMs of triplicate determinations
Description: 2.2. […] In brief, 20 µL of an aqueous mushroom tyrosinase solution (1000 units/mL) and 170 µL of a substrate mixture containing 345 µM of L-tyrosine and 17.2 mM of sodium phosphate buffer (pH 6.5) were added to wells of a 96-well microplate. […] Amounts of dopachrome produced were assessed by measuring optical densities at 475 nm using a microplate reader (VersaMax®, Molecular Devices, Sunnyvale, CA, USA). […] Experiments were independently conducted three times.

[3] = ROS scavenging activity assay (DCFH-DA/esterase, SIN-1); settings: SIN–1 10 µM; 5, 10, 20 µM
Description: 2.13. ROS Scavenging Activity Assay
The ROS scavenging activities of analogs 1–8 and Troloxwere determined as previously described by Ali et al. and Lebel and Bondy. Briefly, 2.5 mM DCFH-DA (2’,7’-dichlorodihydrofluorescein diacetate) (Molecular Probes, Eugene, OR, USA) solution was mixed with esterase (1.5 units/mL) in 50 mM phosphate buffer (pH 7.4), held for 30 min at 37 °C, and keep on ice in the dark until required. Tested compounds (10 µL; final concentrations: 5, 10, and 20 µM) dissolved in DMSO and SIN-1 (3-morpholinosydnonimine) (10 µM) and 180 µL of phosphate buffer in the wells of a black 96-well plate for 30 min. The 50 µL of DCFH-DA-esterase mixture (20 µM) was added. Fluorescence intensities of oxidized DCFH (DCF or 2′,7′-dichlorofluorescein) were measured using a microplate reader (Berthold Advances GmbH & Co., Bad Wildbad, Germany) with excitation and emission wavelengths of 485 and 530 nm, respectively. Trolox was used as the reference control.
Since it has been reported that reactive oxygen species (ROS) are concerned in the regulation of melanogenesis, we examined the ROS scavenging activities of analogs 1–8 using DCFH-DA (2′,7′-dichlorodihydrofluorescein diacetate) and esterase. Trolox and SIN–1 (3-morpholinosydnonimine) were used as the positive control and a ROS generator, respectively. Hydrolysis of DCFA-DA by esterase generates DCFH (2′,7′-dichlorodihydrofluorescein), which reacts with ROS generated by SIN–1 to produce the fluorescent compound DCF (2′,7′-dichlorofluorescein). Thus, ROS scavenging activities of analogs were assessed by measuring DCF fluorescence. […] Test samples including Trolox were treated at three different concentrations (5, 10, or 20 µM).

[4] = tested on: B16F10 cells; assay: Melanin content analysis in α–MSH plus IBMX stimulated B16F10 cells; format: cell-based, murine; settings: α–MSH/IBMX stimulated (3.5-fold), 20 µM, 72 h
Description: 2.10. Melanin Content Analysis Melanin content assays were performed to determine the effects of analog 3 on cellular melanin formation, as previously described with minor modification. […] Briefly, cultured B16F10 cells were seeded in 6-well culture plates at 1 × 10^4 cells/well and incubated for 12 h under culture conditions to allow them to adhere to well bottoms. […] Cells were then washed twice with PBS and detached from wells by incubation with Trypsin/EDTA. After centrifugation, detached cell pellets were dissolved in 1N–NaOH solution (100 µL), incubated for 1 h at 60 °C, and mixed to solubilize melanin released by cells. The ability of analog 3 to inhibit melanin production was determined by measuring well optical densities (ODs) at 405 nm using a microplate reader (VersaMax®, Molecular Devices, Sunnyvale, CA, USA). Melanin contents were calculated by dividing the ODs of samples by the control OD. Experiments were conducted independently 3 times. […] Thus, B16F10 cells were treated with analog 3 (0, 5, 10, or 20 µM) for 1 h and then stimulated with α–MSH (1 µM) plus IBMX (200 µM) for 72 h. Melanin contents were assessed by measuring optical densities at 405 nm.

[5] = Peroxynitrite (ONOO−) scavenging activity assay (DHR 123, SIN-1); settings: SIN–1 10 µM; 5, 10, 20 µM
Description: 2.14. Peroxynitrite (ONOO^−) Scavenging Activity Assay
Peroxynitrite-scavenging activities were determined as described by Kooy et al. with modification. This method monitors the fluorescence of rhodamine 123, which is formed rapidly when non-fluorescent DHR 123 (dihydrorhodamine 123) (Molecular Probes, Eugene, OR, USA) in the presence of peroxynitrite. The rhodamine buffer solution (pH 7.4) included of 50 mM sodium phosphate, 90 mM sodium chloride, 5 mM potassium chloride, and 100 µM DTPA. The final concentration of DHR 123 was 5 µM. In this assay, the buffer solution was prepared prior to use and then stood on ice. Test compounds (10 µL, final concentrations: 5, 10, and 20 µM) dissolved in DMSO and added to 10 µL SIN-1 (10 µM) and 180 µL rhodamine buffer solution in the wells of a black 96-well plate. Fluorescence intensities of oxidized DHR 123 were measured using a fluorescence plate reader (Berthold Advances GmbH & Co., Bad Wildbad, Germany) with an excitation and emission wavelengths of 485 and 535 nm, respectively. Peroxynitrite scavenging activity was calculated after subtracting background fluorescence from final fluorescence intensity. Results are expressed as means ± standard deviation (SD), and L-penicillamine was used as a positive control.
Several RNS (reactive nitrogen species), including peroxynitrite (ONOO^–) and nitric oxide, are known to be involved in the induction of the melanogenesis. Therefore, we investigated the effects of analogs 1–8 on peroxynitrite scavenging activity using DHR123 (dihydrorhodamine) as a ROS indicator and SIN–1 as an RNS generator. Peroxynitrite generated by SIN–1 oxidizes DHR123 to rhodamine 123, a fluorescent compound. Thus, the effects of analogs on peroxynitrite scavenging ability were determined by measuring rhodamine 123 fluorescence.

[6] = DPPH radical scavenging activity assay; settings: test sample 500 µM, DPPH 0.18 mM, 30 min in the dark
Description: 2.11. DPPH Radical Scavenging Activity Assay
The DPPH radical scavenging activities of analogs 1–8 were investigated as previously described with minor modification. L-Ascorbic acid was used as a positive control. In brief, 20 µL of analogs (5 mM) in DMSO or 5 mM L-ascorbic acid in distilled water were mixed with 180 µL of 0.2 mM DPPH in methanol in a 96-well microplate. After the microplate had been stored in the dark for 30 min, optical densities (ODs) were measured at 517 nm using a microplate reader (VersaMax®, Molecular Devices, Sunnyvale, CA, USA). DPPH radical scavenging activities were determined using the following formula:DPPH radical scavenging activity (%) = 100 × (Ac − As)/Ac(1) where Ac indicates the optical density of the non-treated control and As indicates the optical density of test sample. Experiments were conducted independently 3 times.
There is a possibility that compounds with antioxidant properties inhibit the oxidations of tyrosinase substrates, such as L-tyrosine and L-dopa, without interacting with the tyrosinase. Melanin production requires many oxidative processes, including the conversion of L-tyrosine to dopaquinone via L-dopa. Therefore, compounds with antioxidant activity have the potential to inhibit melanogenesis. DPPH (2,2-diphenyl-1-picrylhydrazyl) contains a free radical, and DPPH assays are commonly used to assess antioxidant activity. In this experiment, L-ascorbic acid (an antioxidant) was used as a positive control. The assay was conducted at a test sample and L-ascorbic acid concentration of 500 µM and a DPPH concentration of 0.18 mM. After standing test sample/DPPH mixtures for 30 min in the dark, optical densities were measured to evaluate radical scavenging activities.

Row | Structure (SMILES) | ABTS radical scavenging activity [1] | IC50 [2] [µM] | also measured
1 | O=C1/C(=C/c2ccc(O)cc2)SC(=S)N1C1CCCCC1 [Analog 1, (Z)-3-Cyclohexyl-5-(4-hydroxybenzylidene)-2-thioxothiazolidin-4-one] | 16.6–24.8% | 65.4 ± 7.82 | ROS scavenging [3]: significantly and concentration-dependently scavenged ROS
2 | O=c1cc(CO)occ1O [kojic acid, reference compound] |  |  | melanin contents versus non-treated controls [4]: 3.0 fold
3 | COc1cc(/C=C2\SC(=S)N(C3CCCCC3)C2=O)cc(OC)c1O [Analog 6, (Z)-3-Cyclohexyl-5-(4-hydroxy-3,5-dimethoxybenzylidene)-2-thioxothiazolidin-4-one] | 46.9% | > 200 | peroxynitrite scavenging compared with penicillamine [5]: more potently than penicillamine
4 | COc1ccc(/C=C2\SC(=S)N(C3CCCCC3)C2=O)cc1O [Analog 5, (Z)-3-Cyclohexyl-5-(3-hydroxy-4-methoxybenzylidene)-2-thioxothiazolidin-4-one] | 43.5% | 55 ± 11.9 | 
5 | CC(C)(S)C(N)C(=O)O (stereo in doubt) [penicillamine, L-penicillamine, reference compound] |  |  | peroxynitrite scavenging [5]: significantly and concentration-dependently reduced
6 | COc1cc(/C=C2\SC(=S)N(C3CCCCC3)C2=O)ccc1O [Analog 4, (Z)-3-Cyclohexyl-5-(4-hydroxy-3-methoxybenzylidene)-2-thioxothiazolidin-4-one] | 57.7% | > 200 | DPPH radical scavenging activity [6]: 72%
7 | Cc1c(C)c2c(c(C)c1O)CCC(C)(C(=O)O)O2 (stereo not shown) [Trolox, reference compound] | 79.8% |  | ROS scavenging [3]: significantly and concentration-dependently scavenged ROS
8 | O=C1/C(=C/c2ccc(O)c(Br)c2)SC(=S)N1C1CCCCC1 [Analog 7, (Z)-5-(3-Bromo-4-hydroxybenzylidene)-3-cyclohexyl-2-thioxothiazolidin-4-one] | 16.6–24.8% | 66.2 ± 9.44 | 
9 | O=C1/C(=C/c2cc(Br)c(O)c(Br)c2)SC(=S)N1C1CCCCC1 [Analog 8, (Z)-3-Cyclohexyl-5-(3,5-dibromo-4-hydroxybenzylidene)-2-thioxothiazolidin-4-one] | 16.6–24.8% | > 200 | 
